Reference: patent US9566312B2, “Cyclic peptides and use as medicines” (priority 2012, dated 2017)
Starred links: 1 amine or outer side, 2 acyl side, 3 side chain; linkers in the order of their positions; H or OH if unused. Non-standard residues stand in square brackets, D forms with d. Residues, ends and D or L forms follow the SMILES beside them. NMeAbu(3S-Me,4-OC2H4Mor) = CN[C@H](C(=O)O)[C@H](C)COCCN1CCOCC1; X16 = C[C@H](CN1CCN(S(C)(=O)=O)CC1)[C@@H](C(=O)[*:2])N(C)[*:1]; X7 = C[C@H](COCCN1CCS(=O)(=O)CC1)[C@@H](C(=O)[*:2])N(C)[*:1]; X5 = C[C@H](COC(=O)N1CCN(C)CC1)[C@@H](C(=O)[*:2])N(C)[*:1]; X9 = C[C@@H](CN1CCOCC1)[C@@H](C(=O)[*:2])N(C)[*:1]; MeBmt = C/C=C/C[C@@H](C)[C@@H](O)[C@H](NC)C(=O)O; NMeL = CN[C@@H](CC(C)C)C(=O)O; NMeV = CN[C@H](C(=O)O)C(C)C; dNMeA = CN[C@H](C)C(=O)O; Abu = CC[C@H](N)C(=O)O

Legend:
Human MRP2 = Human MRP2 (Homo sapiens (Human), UniProt Q92887); test: MRP2 transporter vesicle assay; format: in vitro ADME
Experimental: Method 4: Measuring Hepatic Transporter Interactions […] […] MRP2 Assay: Human MRP2 inhibition was tested using a BD Gentest Transporter Vesicle Assay Kit. Inside-out vesicles were prepared from insect Sf9 cells infected with baculovirus expressing hMRP2. […] The percent remaining of ATP dependent uptake activity was calculated as uptake activity in the presence of inhibitor divided by the uptake activity in the absence of inhibitor.

[1] = biological target: organic anion transporting polypeptide 1B1 (OATP1B1) (Homo sapiens (Human), UniProt Q9Y6L6); test: OATP assay in CHO-OATP1B1 cells;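 further: inhibition of probe substrate uptake into the cells, ten minutes exposure, accumulated substrate read by fluorescence once cells were lysed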
[2] = system: genotype 1b subgenomic HCV replicon in Huh7.5 cells; format: cell-based, hepatitis C virus; settings: genotype 1b replicon, 72 h incubation; read-out: RPLN-1b IC50
Procedure, shortened: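 Huh7.5 cells carrying genotype 1b subgenomic HCV replicon with renilla luciferase-neomycin reporter, in phenol red-free DMEM without G418. Luciferase measured after 72 h compound exposure relative to DMSO-treated cells; cytotoxicity (CC50) by Cell Titer-Glo.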

CypF = CypF (Homo sapiens (Human), UniProt P30405); test: Inhibitor binding to cyclophilin proteins by SPR, CypF; settings: 1:1 binding model
Procedure, shortened: (§1)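 Mono-biotinylated avi-tagged cyclophilins captured on a Biotin CAPture chip. Single-cycle kinetics at 50 μL/min, 1 min contacts, 10 min final dissociation, in 10 mM HEPES pH 7.4, 150 mM NaCl, 0.05% P20, 3% DMSO. kon, koff and KD from a 1:1 binding model.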

cyclophilin B (CypB) = cyclophilin B (CypB) (Homo sapiens (Human), UniProt P23284); test: Inhibitor binding to cyclophilin proteins by SPR, CypB; set-up: unit not given here; settings: 1:1 binding model
Procedure, shortened: as §1

[3] = system: peripheral blood mononuclear cells (PBMC); test: Anti-proliferative or immunosuppressive activity, BrdU incorporation in PHA-stimulated PBMC; format: cell-based; settings: PHA 3 μg/ml, 60 hour compound treatment; read-out: EMV PBMC IC50
Procedure, shortened: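 Fresh PBMCs from two donors, 30,000 per well in X-VIVO 15 medium, stimulated with 3 μg/ml PHA to drive T-cell proliferation. Proliferation measured as BrdU incorporation into DNA by BrdU ELISA.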

CYP3A4 = CYP3A4 (Homo sapiens (Human), UniProt P08684); test: Time-dependent inhibition of CYP3A4;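 further: Two-step in vitro assay, kobs derived from residual CYP3A4 activity versus preincubation time per concentration, then kinact and KI by nonlinear fit of kobs against concentration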
cyclophilin A (CypA) = cyclophilin A (CypA) (Homo sapiens (Human), UniProt P62937); test: Inhibitor binding to cyclophilin proteins by SPR, CypA; set-up: unit not given here; settings: 1:1 binding model;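 further: Single-cycle kinetics on a Biacore T200, compound injected at several concentrations for 1 min each at 50 µL/min, then 10 min dissociation, in HEPES pH 7.4 buffer with 3% DMSO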
Chain of cyclophilin A (CypA) (P62937 whole entry): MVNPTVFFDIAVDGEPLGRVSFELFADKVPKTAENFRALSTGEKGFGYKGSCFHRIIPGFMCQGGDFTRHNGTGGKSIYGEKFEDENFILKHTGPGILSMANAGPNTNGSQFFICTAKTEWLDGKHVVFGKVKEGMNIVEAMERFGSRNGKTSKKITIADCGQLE

Chain of organic anion transporting polypeptide 1B1 (OATP1B1) (Q9Y6L6 whole entry): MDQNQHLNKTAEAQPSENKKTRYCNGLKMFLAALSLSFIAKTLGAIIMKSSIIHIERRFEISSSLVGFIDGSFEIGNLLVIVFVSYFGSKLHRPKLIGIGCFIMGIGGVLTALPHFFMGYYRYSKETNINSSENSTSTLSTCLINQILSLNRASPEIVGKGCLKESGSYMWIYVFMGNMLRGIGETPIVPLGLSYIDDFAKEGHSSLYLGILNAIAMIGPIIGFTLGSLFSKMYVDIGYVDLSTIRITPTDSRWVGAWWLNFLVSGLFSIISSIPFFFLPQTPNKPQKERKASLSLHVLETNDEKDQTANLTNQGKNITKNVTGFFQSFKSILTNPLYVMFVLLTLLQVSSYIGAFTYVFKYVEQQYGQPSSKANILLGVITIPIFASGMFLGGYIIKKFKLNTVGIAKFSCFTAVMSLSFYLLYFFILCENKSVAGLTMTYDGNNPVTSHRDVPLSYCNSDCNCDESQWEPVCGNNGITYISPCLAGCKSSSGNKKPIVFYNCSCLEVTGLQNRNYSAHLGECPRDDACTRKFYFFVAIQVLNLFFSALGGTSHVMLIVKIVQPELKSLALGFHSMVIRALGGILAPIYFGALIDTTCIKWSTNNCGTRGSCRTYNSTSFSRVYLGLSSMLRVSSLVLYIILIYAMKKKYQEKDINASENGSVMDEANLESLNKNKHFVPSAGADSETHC
Chain of CYP3A4 (P08684 whole entry): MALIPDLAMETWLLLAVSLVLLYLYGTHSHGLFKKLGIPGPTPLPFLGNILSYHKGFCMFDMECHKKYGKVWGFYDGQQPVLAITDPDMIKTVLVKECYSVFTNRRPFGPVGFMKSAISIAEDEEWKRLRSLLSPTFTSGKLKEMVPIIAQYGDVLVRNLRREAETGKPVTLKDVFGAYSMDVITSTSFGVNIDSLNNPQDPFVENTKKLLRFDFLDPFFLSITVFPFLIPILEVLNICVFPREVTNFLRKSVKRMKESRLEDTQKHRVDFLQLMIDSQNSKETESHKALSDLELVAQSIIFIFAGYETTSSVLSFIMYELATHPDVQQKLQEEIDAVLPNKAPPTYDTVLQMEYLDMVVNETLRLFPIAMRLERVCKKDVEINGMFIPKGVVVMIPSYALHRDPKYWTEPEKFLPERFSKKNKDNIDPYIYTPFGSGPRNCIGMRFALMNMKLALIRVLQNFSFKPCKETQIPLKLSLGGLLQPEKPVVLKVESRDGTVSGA
Chain of cyclophilin B (CypB) (P23284 34-216): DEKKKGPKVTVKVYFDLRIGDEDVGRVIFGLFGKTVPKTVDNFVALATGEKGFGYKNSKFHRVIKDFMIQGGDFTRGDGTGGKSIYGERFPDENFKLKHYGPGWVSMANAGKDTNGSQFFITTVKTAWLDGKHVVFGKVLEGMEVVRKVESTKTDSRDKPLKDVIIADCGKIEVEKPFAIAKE
Chain of Human MRP2 (Q92887 whole entry): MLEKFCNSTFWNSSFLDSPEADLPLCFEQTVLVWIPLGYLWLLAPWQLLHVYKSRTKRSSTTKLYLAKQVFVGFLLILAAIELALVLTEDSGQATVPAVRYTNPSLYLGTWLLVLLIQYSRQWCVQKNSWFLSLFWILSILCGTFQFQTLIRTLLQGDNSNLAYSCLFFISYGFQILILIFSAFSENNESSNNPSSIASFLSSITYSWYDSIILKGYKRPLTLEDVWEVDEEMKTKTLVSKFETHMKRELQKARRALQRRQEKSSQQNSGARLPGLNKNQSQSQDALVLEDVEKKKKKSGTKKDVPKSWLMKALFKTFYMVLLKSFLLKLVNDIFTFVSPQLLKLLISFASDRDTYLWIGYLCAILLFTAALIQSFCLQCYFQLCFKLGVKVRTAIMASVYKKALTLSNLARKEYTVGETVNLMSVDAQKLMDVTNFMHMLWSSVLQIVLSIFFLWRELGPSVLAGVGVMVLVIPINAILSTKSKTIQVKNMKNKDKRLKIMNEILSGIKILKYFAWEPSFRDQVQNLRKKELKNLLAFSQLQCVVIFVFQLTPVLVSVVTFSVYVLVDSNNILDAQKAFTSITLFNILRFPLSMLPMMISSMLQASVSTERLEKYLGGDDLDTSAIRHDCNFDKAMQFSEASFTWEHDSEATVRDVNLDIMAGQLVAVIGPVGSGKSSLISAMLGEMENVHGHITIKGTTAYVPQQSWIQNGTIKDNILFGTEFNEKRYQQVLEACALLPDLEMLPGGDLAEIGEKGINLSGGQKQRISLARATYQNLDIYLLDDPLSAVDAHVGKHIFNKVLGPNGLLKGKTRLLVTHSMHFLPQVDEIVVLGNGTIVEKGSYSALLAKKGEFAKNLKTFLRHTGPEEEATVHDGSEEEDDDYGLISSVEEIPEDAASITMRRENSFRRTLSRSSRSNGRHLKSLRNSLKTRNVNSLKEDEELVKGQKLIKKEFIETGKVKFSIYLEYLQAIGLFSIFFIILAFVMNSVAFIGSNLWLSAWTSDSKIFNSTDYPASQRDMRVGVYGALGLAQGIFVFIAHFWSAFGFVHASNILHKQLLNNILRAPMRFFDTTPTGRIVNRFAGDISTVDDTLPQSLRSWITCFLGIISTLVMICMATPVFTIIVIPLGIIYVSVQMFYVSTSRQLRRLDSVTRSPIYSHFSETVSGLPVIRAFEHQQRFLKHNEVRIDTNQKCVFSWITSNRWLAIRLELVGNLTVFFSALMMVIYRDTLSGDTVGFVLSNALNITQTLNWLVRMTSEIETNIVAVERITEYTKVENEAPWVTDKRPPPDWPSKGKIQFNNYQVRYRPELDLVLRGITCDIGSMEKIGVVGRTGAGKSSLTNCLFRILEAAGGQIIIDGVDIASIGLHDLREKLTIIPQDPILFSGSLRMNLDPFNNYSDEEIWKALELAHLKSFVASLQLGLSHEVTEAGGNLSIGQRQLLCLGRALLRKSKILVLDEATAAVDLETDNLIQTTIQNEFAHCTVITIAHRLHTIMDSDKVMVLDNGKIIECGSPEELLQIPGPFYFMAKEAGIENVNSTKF
Chain of CypF (P30405 30-207): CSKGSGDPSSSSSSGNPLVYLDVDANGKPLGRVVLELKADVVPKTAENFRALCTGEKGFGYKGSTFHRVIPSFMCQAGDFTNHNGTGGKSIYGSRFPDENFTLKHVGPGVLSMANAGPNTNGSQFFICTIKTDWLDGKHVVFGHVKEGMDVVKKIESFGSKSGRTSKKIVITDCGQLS

| Structure (SMILES) | IC50 (Human MRP2) [µM] | IC50 [1] [µM] | IC50 [2] [µM] | CypF Kd (CypF) [µM] | CypB Kd (cyclophilin B (CypB)) | IC50 [3] [µM] | Ki (CYP3A4) [µM] | CypA Kd (cyclophilin A (CypA)) |
| --- | --- | --- | --- | --- | --- | --- | --- | --- |
| C/C=C/C[C@@H](C)[C@@H](O)[C@H]1C(=O)N[C@@H](CC)C(=O)N(C)[C@H](C)C(=O)N(C)[C@@H]([C@H](C)COC(=O)N2CCN(C)CC2)C(=O)N[C@@H](C(C)C)C(=O)N(C)[C@@H](CC(C)C)C(=O)N[C@@H](C)C(=O)N[C@H](C)C(=O)N(C)[C@@H](CC(C)C)C(=O)N(C)[C@@H](CC(C)C)C(=O)N(C)[C@@H](C(C)C)C(=O)N1C [Compound 2.5.9, 3-[D-Ala]-4-[(2S,3S)-3-methyl-2-(methylamino)-4-((4-methylpiperazine-1-carbonyl)oxy)butanoyl]-cyclosporin] (cyclo(A[dA][NMeL][NMeL][NMeV][MeBmt][Abu][dNMeA][X5]V[NMeL])) | 21 | 6.7 | 0.09 | 0.0003 | 0.5 | 17.7 | > 50 | 0.8 |
| C/C=C/C[C@@H](C)[C@@H](O)[C@H]1C(=O)N[C@@H](CC)C(=O)N(C)[C@H](C)C(=O)N(C)[C@@H]([C@H](C)COCCN2CCS(=O)(=O)CC2)C(=O)N[C@@H](C(C)C)C(=O)N(C)[C@@H](CC(C)C)C(=O)N[C@@H](C)C(=O)N[C@H](C)C(=O)N(C)[C@@H](CC(C)C)C(=O)N(C)[C@@H](CC(C)C)C(=O)N(C)[C@@H](C(C)C)C(=O)N1C [Compound 2.8.2] (cyclo(A[dA][NMeL][NMeL][NMeV][MeBmt][Abu][dNMeA][X7]V[NMeL])) | 28 | 3 |  | 0.0006 | 0.6 |  |  | 1.6 |
| C/C=C/C[C@@H](C)[C@@H](O)[C@H]1C(=O)N[C@@H](CC)C(=O)N(C)[C@H](C)C(=O)N(C)[C@@H]([C@H](C)CN2CCN(S(C)(=O)=O)CC2)C(=O)N[C@@H](C(C)C)C(=O)N(C)[C@@H](CC(C)C)C(=O)N[C@@H](C)C(=O)N[C@H](C)C(=O)N(C)[C@@H](CC(C)C)C(=O)N(C)[C@@H](CC(C)C)C(=O)N(C)[C@@H](C(C)C)C(=O)N1C [Compound 2.5.5, 3-[D-Ala]-4-[(2S,3R)-3-methyl-2-(methylamino)-4-(4-(methylsulfonyl)piperazin-1-yl)butanoyl]-cyclosporin] (cyclo(A[dA][NMeL][NMeL][NMeV][MeBmt][Abu][dNMeA][X16]V[NMeL])) | 13 | 4.8 | 0.066 | 0.0017 | 1.9 | 2.8 |  | 3.3 |
| C/C=C/C[C@@H](C)[C@@H](O)[C@H]1C(=O)N[C@@H](CC)C(=O)N(C)[C@H](C)C(=O)N(C)[C@@H]([C@H](C)COCCN2CCOCC2)C(=O)N[C@@H](C(C)C)C(=O)N(C)[C@@H](CC(C)C)C(=O)N[C@@H](C)C(=O)N[C@H](C)C(=O)N(C)[C@@H](CC(C)C)C(=O)N(C)[C@@H](CC(C)C)C(=O)N(C)[C@@H](C(C)C)C(=O)N1C [Compound 2.8.1, 3-[D-Ala]-4-[(2S,3S)-3-methyl-2-(methylamino)-4-(2-morpholinoethoxy)butanoyl]-cyclosporin] (cyclo(A[dA][NMeL][NMeL][NMeV][MeBmt][Abu][dNMeA][NMeAbu(3S-Me,4-OC2H4Mor)]V[NMeL])) | 23 | 7.6 |  | 0.0007 | 0.7 |  | > 50 | 1.4 |
| C/C=C/C[C@@H](C)[C@@H](O)[C@H]1C(=O)N[C@@H](CC)C(=O)N(C)[C@H](C)C(=O)N(C)[C@@H]([C@@H](C)CN2CCOCC2)C(=O)N[C@@H](C(C)C)C(=O)N(C)[C@@H](CC(C)C)C(=O)N[C@@H](C)C(=O)N[C@H](C)C(=O)N(C)[C@@H](CC(C)C)C(=O)N(C)[C@@H](CC(C)C)C(=O)N(C)[C@@H](C(C)C)C(=O)N1C [Compound 2.17.1, 3-[D-Ala]-4[(2S,3S)-2-Amino-3-methyl-4-morpholin-4-yl-butanoyl]-cyclosporin] (cyclo(A[dA][NMeL][NMeL][NMeV][MeBmt][Abu][dNMeA][X9]V[NMeL])) |  | 3.6 | 0.029 | 0.0003 | 0.4 | 18 | > 50 | 0.6 |
